Source: ChEMBL document CHEMBL2073854, “Localization and function of the organic anion-transporting polypeptide Oatp2 in rat liver” (Gastroenterology, 1999)

Legend:
[1] = molecular target: T1, Solute carrier organic anion transporter family member 1A4 (Rattus norvegicus, UniProt O35913); test: (§1) TP_TRANSPORTER: uptake in Xenopus laevis oocytes; type: functional, cell-based; details: oocyte
T1 sequence (O35913 whole entry): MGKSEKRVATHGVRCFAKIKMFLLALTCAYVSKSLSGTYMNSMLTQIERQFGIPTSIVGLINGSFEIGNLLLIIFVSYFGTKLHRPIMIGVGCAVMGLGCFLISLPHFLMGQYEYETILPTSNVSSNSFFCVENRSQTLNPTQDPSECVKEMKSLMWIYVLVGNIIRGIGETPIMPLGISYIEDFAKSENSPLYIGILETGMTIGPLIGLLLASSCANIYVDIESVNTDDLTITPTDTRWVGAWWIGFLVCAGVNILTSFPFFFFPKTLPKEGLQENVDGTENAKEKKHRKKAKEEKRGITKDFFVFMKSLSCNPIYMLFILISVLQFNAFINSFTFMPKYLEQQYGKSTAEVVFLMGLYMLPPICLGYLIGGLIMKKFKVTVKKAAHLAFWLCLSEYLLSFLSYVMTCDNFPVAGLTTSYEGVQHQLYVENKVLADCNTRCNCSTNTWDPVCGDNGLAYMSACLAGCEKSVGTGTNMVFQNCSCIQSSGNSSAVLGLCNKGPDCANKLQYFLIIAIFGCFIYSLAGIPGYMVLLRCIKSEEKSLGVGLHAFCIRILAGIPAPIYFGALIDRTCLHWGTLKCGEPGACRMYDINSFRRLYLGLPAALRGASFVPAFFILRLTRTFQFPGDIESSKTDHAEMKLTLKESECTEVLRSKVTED

[2] = molecular target: T2, Solute carrier organic anion transporter family member 1A1 (Rattus norvegicus, UniProt P46720); test: as §1; type: functional, cell-based; details: oocyte
T2 sequence (P46720 whole entry): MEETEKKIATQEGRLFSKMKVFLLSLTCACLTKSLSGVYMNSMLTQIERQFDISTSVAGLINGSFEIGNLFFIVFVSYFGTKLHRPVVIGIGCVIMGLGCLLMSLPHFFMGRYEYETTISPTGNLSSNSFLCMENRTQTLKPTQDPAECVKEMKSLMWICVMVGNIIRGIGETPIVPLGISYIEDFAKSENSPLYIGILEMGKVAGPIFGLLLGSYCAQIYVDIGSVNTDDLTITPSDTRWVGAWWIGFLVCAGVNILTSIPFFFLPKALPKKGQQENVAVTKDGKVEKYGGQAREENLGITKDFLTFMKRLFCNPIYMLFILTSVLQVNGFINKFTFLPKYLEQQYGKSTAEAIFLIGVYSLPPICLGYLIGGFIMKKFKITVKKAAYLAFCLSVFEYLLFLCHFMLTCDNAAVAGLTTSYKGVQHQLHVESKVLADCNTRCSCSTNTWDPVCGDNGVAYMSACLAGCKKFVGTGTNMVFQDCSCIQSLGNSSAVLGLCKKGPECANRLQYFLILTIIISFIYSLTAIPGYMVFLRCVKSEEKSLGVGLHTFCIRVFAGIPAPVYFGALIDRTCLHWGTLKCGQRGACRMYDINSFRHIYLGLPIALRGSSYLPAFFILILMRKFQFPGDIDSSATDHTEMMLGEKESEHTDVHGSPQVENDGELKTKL

[3] = substrate: CC(C)C[C@@H]1NC(=O)[C@@H](C(C)C)NC(=O)[C@@H]2CCCN2C(=O)[C@@H](CC(=O)O)NC(=O)[C@@H](Cc2c[nH]c3ccccc23)NC1=O; test: as §1; type: functional, cell-based, Oocyte
[4] = substrate: C[C@H](CCC(=O)NCCS(=O)(=O)O)[C@H]1CC[C@H]2[C@@H]3[C@@H](O)C[C@@H]4C[C@H](O)CC[C@]4(C)[C@H]3CC[C@]12C; test: as §1; type: functional, cell-based, Oocyte
[5] = substrate: C[C@H](CCC(=O)NCCS(=O)(=O)O)[C@H]1CC[C@H]2[C@@H]3[C@H](O)C[C@@H]4C[C@H](O)CC[C@]4(C)[C@H]3CC[C@]12C; test: as §1; type: functional, cell-based, Oocyte
[6] = substrate: [H][C@@]12CC=C3C[C@@H](OS(=O)(=O)O)CC[C@]3(C)[C@@]1([H])CC[C@]1(C)C(=O)CC[C@@]21[H]; test: as §1; type: functional, cell-based, Oocyte
[7] = substrate: [H][C@]12CC[C@]3([H])[C@]([H])(CC[C@]4(C)C([C@H](C)CCC(=O)NCCS(=O)(=O)O)CC[C@@]34[H])[C@@]1(C)CC[C@@H](OS(=O)(=O)O)C2; test: as §1; type: functional, cell-based, Oocyte

**Q.** How did the Activity [1] turn out when C[C@H](CCC(=O)NCCS(=O)(=O)O)C1CC[C@H]2[C@@H]3CC[C@@H]4C[C@H](OS(=O)(=O)O)CC[C@]4(C)[C@H]3CC[C@]12C (some centres not stated) was run?
**A.** is not a substrate [-]

**Q.** What does the source list for C=CC1=C(C)/C(=C/c2[nH]c(Cc3[nH]c(/C=C4\NC(=O)C(C)=C4C=C)c(C)c3CCC(=O)O[C@@H]3OC(C(=O)O)[C@@H](O)C(O)C3O)c(CCC(=O)O)c2C)NC1=O (some centres not stated) [BILIRUBIN MONOGLUCURONIDE]?
**A.** Activity [2]: substrate [+]; Activity [1]: is not a substrate [-]

**Q.** Which Activity [1] does the source give for O=C1OC(c2ccc(O)c(S(=O)(=O)[O-])c2)(c2ccc(O)c(S(=O)(=O)[O-])c2)c2c(Br)c(Br)c(Br)c(Br)c21.[Na+].[Na+] [SULFOBROMOPHTHALEIN SODIUM] here?
**A.** is not a substrate [-]

**Q.** GADOXETATE was tested. Which Activity [1] did it give?
**A.** is not a substrate [-]

**Q.** Which Activity [1] does the source give for CCCCC/C=C\C\C=C/C=C/C=C/[C@@H](SC[C@@H](NC(=O)CC[C@H](N)C(=O)O)C(=O)NCC(=O)O)[C@@H](O)CCCC(=O)O [LEUKOTRIEN C4] here?
**A.** is not a substrate [-]

B1: Solute carrier organic anion transporter family member 1A4 (Rattus norvegicus) (protein)
chain: MGKSEKRVATHGVRCFAKIKMFLLALTCAYVSKSLSGTYMNSMLTQIERQFGIPTSIVGLINGSFEIGNLLLIIFVSYFGTKLHRPIMIGVGCAVMGLGCFLISLPHFLMGQYEYETILPTSNVSSNSFFCVENRSQTLNPTQDPSECVKEMKSLMWIYVLVGNIIRGIGETPIMPLGISYIEDFAKSENSPLYIGILETGMTIGPLIGLLLASSCANIYVDIESVNTDDLTITPTDTRWVGAWWIGFLVCAGVNILTSFPFFFFPKTLPKEGLQENVDGTENAKEKKHRKKAKEEKRGITKDFFVFMKSLSCNPIYMLFILISVLQFNAFINSFTFMPKYLEQQYGKSTAEVVFLMGLYMLPPICLGYLIGGLIMKKFKVTVKKAAHLAFWLCLSEYLLSFLSYVMTCDNFPVAGLTTSYEGVQHQLYVENKVLADCNTRCNCSTNTWDPVCGDNGLAYMSACLAGCEKSVGTGTNMVFQNCSCIQSSGNSSAVLGLCNKGPDCANKLQYFLIIAIFGCFIYSLAGIPGYMVLLRCIKSEEKSLGVGLHAFCIRILAGIPAPIYFGALIDRTCLHWGTLKCGEPGACRMYDINSFRRLYLGLPAALRGASFVPAFFILRLTRTFQFPGDIESSKTDHAEMKLTLKESECTEVLRSKVTED
**Q.** How did the Km [3] turn out when B1 was run?
**A.** 30 µM

**Q.** What about the Km [4] of the same molecule?
**A.** 17 µM

**Q.** And the Km [5]?
**A.** 12 µM

**Q.** What about the Km [6] of the same molecule?
**A.** 17 µM

B2: Solute carrier organic anion transporter family member 1A1 (Rattus norvegicus) (protein)
chain: MEETEKKIATQEGRLFSKMKVFLLSLTCACLTKSLSGVYMNSMLTQIERQFDISTSVAGLINGSFEIGNLFFIVFVSYFGTKLHRPVVIGIGCVIMGLGCLLMSLPHFFMGRYEYETTISPTGNLSSNSFLCMENRTQTLKPTQDPAECVKEMKSLMWICVMVGNIIRGIGETPIVPLGISYIEDFAKSENSPLYIGILEMGKVAGPIFGLLLGSYCAQIYVDIGSVNTDDLTITPSDTRWVGAWWIGFLVCAGVNILTSIPFFFLPKALPKKGQQENVAVTKDGKVEKYGGQAREENLGITKDFLTFMKRLFCNPIYMLFILTSVLQVNGFINKFTFLPKYLEQQYGKSTAEAIFLIGVYSLPPICLGYLIGGFIMKKFKITVKKAAYLAFCLSVFEYLLFLCHFMLTCDNAAVAGLTTSYKGVQHQLHVESKVLADCNTRCSCSTNTWDPVCGDNGVAYMSACLAGCKKFVGTGTNMVFQDCSCIQSLGNSSAVLGLCKKGPECANRLQYFLILTIIISFIYSLTAIPGYMVFLRCVKSEEKSLGVGLHTFCIRVFAGIPAPVYFGALIDRTCLHWGTLKCGQRGACRMYDINSFRHIYLGLPIALRGSSYLPAFFILILMRKFQFPGDIDSSATDHTEMMLGEKESEHTDVHGSPQVENDGELKTKL
**Q.** For B2, which Km [3] is on record?
**A.** 600 µM

**Q.** And the Km [7]?
**A.** 6 µM
